From article PMC9296036, “A peptide interfering with the dimerization of oncogenic KITENIN protein and its stability suppresses colorectal tumour progression” (Clinical and Translational Medicine, 2022)
Ends that are not written are not given here.

Tested on: Caco2/KITENIN-V5 cells
Test: Autophagosome staining (Cyto-ID) in Caco2/KITENIN-V5 cells
Assay type: cell-based
Settings: KDIP 5 μM, similar to rapamycin positive control
Procedure: To test whether KDIP induces autophagy in KITENIN‐expressing Caco2 cells, cells were grown on coverslips for 24 h. Cells were washed with PBS and then stained with Cyto‐ID green fluorescence reagents (Enzo Life Sciences, Plymouth Meeting, PA) for 1 h at 37°C in a cell culture incubator. Cells were washed with PBS and mounted with […] mounting medium containing nuclear DAPI (Vector Lab). Cells were imaged by confocal microscope.
FIGURE 3 RACK1 binds to KAI1 C‐terminal interacting tetraspanin (KITENIN) and KITENIN dimerization‐interfering peptide (KDIP) stimulates the degradation of KITENIN by inducing increased binding of RACK1 to KITENIN. (A) RACK1 specifically binds to KITENIN. Caco2/KITENIN‐V5 cells were transfected with RACK1‐GFP for 48 h, immunoprecipitated with anti‐GFP antibody and immunoblotted with anti‐V5 antibody to detect KITENIN bound with RACK1 (left panel). […] The proteins in whole‐cell lysate (WCL) were detected with the indicated antibody. […] Caco2 cells were transfected with KITENIN‐V5 and/or RACK1‐GFP (left) or KITENIN‐V5 and/or si‐RACK1 (right), and their expression after treatment with KDIP (1 μM, 24 h) was detected with the indicated antibody (upper) or subjected to invasion assay (lower). […] Caco2/KITENIN‐V5 cells were treated with KDIP for 24 h and assessed by immunoblot analyses using an anti‐KITENIN, an anti‐p62, or an anti‐LC3B antibody (left panel). […]

YARVRRRGPRRWRLVSDEAV [KDIP]
formation of the autophagosome (in words): increased
